Reference: publication PMC9120017, “Inhibition mechanism of the chloride channel TMEM16A by the pore blocker 1PBC” (Nature Communications, 2022)
Where two headings read alike, the source gives them in different places.

Molecular target: T1, mouse TMEM16A mutant R515A (Mus musculus, UniProt Q8BHY3, R515A)
T1 construct: expressed in transfected cells; host or cells: HEK293T
T1 sequence (Q8BHY3 1-960 R515A): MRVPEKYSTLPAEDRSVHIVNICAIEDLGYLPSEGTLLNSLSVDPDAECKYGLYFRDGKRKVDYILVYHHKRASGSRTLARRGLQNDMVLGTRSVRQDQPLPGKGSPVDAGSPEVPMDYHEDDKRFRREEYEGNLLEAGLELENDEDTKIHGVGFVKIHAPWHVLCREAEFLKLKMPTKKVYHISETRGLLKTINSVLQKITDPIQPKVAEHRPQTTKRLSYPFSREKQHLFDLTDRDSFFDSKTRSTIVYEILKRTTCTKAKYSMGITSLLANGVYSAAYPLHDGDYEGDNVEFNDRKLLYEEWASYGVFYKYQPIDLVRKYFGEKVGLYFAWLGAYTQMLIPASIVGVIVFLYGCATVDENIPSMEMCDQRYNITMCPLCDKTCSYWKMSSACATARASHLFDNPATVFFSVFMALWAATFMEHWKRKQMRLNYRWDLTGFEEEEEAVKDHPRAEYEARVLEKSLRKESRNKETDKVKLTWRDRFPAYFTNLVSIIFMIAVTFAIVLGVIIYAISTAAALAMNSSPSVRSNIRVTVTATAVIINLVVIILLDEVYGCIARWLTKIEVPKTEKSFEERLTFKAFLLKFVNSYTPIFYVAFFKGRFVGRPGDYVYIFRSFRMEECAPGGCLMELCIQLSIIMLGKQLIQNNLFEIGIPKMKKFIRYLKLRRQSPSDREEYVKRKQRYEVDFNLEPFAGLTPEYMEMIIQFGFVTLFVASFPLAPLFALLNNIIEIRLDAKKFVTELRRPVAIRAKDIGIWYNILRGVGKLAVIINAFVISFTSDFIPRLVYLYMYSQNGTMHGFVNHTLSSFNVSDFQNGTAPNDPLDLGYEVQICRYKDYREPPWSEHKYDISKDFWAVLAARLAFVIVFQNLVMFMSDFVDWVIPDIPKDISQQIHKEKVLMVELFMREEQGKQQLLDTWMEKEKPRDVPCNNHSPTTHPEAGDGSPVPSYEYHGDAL
Assay: Inside-out patch recording of 1PBC block, mutant R515A
Assay type: cell-based
Method: HEK293T cells (ATCC CRL-1573) were maintained in Dulbecco’s modified Eagle’s medium (DMEM; Sigma-Aldrich) supplemented with 10 U ml^−1 penicillin, 0.1 mg ml^−1 streptomycin (Sigma-Aldrich), 2 mM L-glutamine (Sigma-Aldrich), and 10% FBS (Sigma-Aldrich) in a humidified atmosphere containing 5% CO2 at 37 °C. HEK293S GnTI^− cells (ATCC CRL-3022) were maintained in HyClone HyCell TransFx-H medium (GE Healthcare) supplemented with 10 U ml^−1 penicillin, 0.1 mg ml^−1 streptomycin, 4 mM L-glutamine, 0.15% poloxamer 188 (Sigma-Aldrich), and 1% FBS in an atmosphere containing 5% CO2 at 185 rpm at 37 °C. The ac splice variant of mouse TMEM16A (UniProt ID: Q8BHY3), mouse TMEM16B (UniProt ID: Q8CFW1), or mouse TMEM16F (UniProt ID: Q6P9J9) bearing a 3C cleavage site, a Venus YFP, a Myc tag, and a Streptavidin-binding peptide (SBP) downstream of the open reading frame in a modified pcDNA3.1 vector (Invitrogen) were used as described previously[21],[31]. Mutations were introduced using a modified QuikChange method[58] and were verified by sequencing.
HEK293T cells were transfected with 3–4 μg DNA per 6 cm Petri dish using the calcium phosphate co-precipitation method and were used within 24–96 h after transfection. Recordings were performed on inside-out patches excised from HEK293T cells expressing the construct of interest. Patch pipettes were pulled from borosilicate glass capillaries (O.D. 1.5 mm, I.D. 0.86 mm, Sutter Instrument) and were fire-polished with a microforge (Narishige) before use. Pipette resistance was typically 3–8 MΩ when filled with the recording solutions detailed below. Seal resistance was typically 4 GΩ or higher. Voltage-clamp recordings were made using Axopatch 200B, Digidata 1550, and Clampex 10.7 (Molecular Devices). Analog signals were filtered with the in-built 4-pole Bessel filter at 10 kHz and were digitized at 20 kHz. Solution exchange was achieved using a gravity-fed system through a theta glass pipette mounted on an ultra-fast piezo-driven stepper (Siskiyou). […] All recordings were performed at 20 °C.
A symmetrical ionic condition was used throughout. Stock solution with Ca^2+-EGTA contained 150 mM NaCl, 5.99 mM Ca(OH)2, 5 mM EGTA, and 10 mM HEPES at pH 7.40. Stock solution with EGTA contained 150 mM NaCl, 5 mM EGTA, and 10 mM HEPES at pH 7.40. Free Ca^2+ concentrations were adjusted by mixing the stock solutions at the required ratios calculated using the WEBMAXC program (http://web.stanford.edu/~cpatton/webmaxcS.htm). Patch pipettes were filled with the stock solution with Ca^2+-EGTA, which has a free Ca^2+ concentration of 1 mM. 1PBC (ChemBridge) stock was reconstituted in anhydrous DMSO (Sigma-Aldrich) at 100 mM and stored at −20 °C. Working solutions with 1PBC were prepared by serial dilution. Unless otherwise stated, experiments were performed at a saturating Ca^2+ concentration as shown in Supplementary Table 1 and the primary data were corrected for current rundown as described previously[21],[25].
Concentration-response relations, obtained from the ratio of the I-V plots before and after the application of the blocker, were fitted to the Hill equation,1 I/Imax=1/1+IC50/[blocker]^h where I/Imax is the normalized current responses, IC50 defines the concentration at which inhibition is at its half-maximum, and h is the Hill coefficient.

N#Cc1c(C(F)(F)F)cc(O)n2c1nc1ccccc12 [1PBC]
IC50 (0 mV, 4 µM Ca2+): 120 µM
remaining activity at 10 µM (10 µM 1PBC, +80 mV, saturating Ca2+ (4 µM), read-out: I/Imax): 91.2%
remaining activity at 10 µM (10 µM 1PBC, -80 mV, saturating Ca2+ (4 µM), read-out: I/Imax): 93.3%
remaining activity at 30 µM (30 µM 1PBC, +80 mV, saturating Ca2+ (4 µM), read-out: I/Imax): 74.8%
remaining activity at 30 µM (30 µM 1PBC, -80 mV, saturating Ca2+ (4 µM), read-out: I/Imax): 86.5%
remaining activity at 100 µM (100 µM 1PBC, +80 mV, saturating Ca2+ (4 µM), read-out: I/Imax): 47.7%
remaining activity at 100 µM (100 µM 1PBC, -80 mV, saturating Ca2+ (4 µM), read-out: I/Imax): 61.6%
remaining activity at 10 µM (1PBC 10, 0 mV, read-out: fraction of unblocked current): 92.5%
remaining activity at 10 µM (1PBC 10, 20 mV, read-out: fraction of unblocked current): 92.3%
remaining activity at 10 µM (1PBC 10, 40 mV, read-out: fraction of unblocked current): 92.8%
remaining activity at 10 µM (1PBC 10, 60 mV, read-out: fraction of unblocked current): 91.6%
remaining activity at 10 µM (1PBC 10, 80 mV, read-out: fraction of unblocked current): 91.2%
remaining activity at 10 µM (1PBC 10, 100 mV, read-out: fraction of unblocked current): 93.9%
remaining activity at 10 µM (1PBC 10, 120 mV, read-out: fraction of unblocked current): 90.5%
remaining activity at 10 µM (1PBC 10, 140 mV, read-out: fraction of unblocked current): 93.5%
remaining activity at 10 µM (1PBC 10, -20 mV, read-out: fraction of unblocked current): 92.7%
remaining activity at 10 µM (1PBC 10, -40 mV, read-out: fraction of unblocked current): 91.8%
remaining activity at 10 µM (1PBC 10, -60 mV, read-out: fraction of unblocked current): 91.4%
remaining activity at 10 µM (1PBC 10, -80 mV, read-out: fraction of unblocked current): 93.3%
remaining activity at 10 µM (1PBC 10, -100 mV, read-out: fraction of unblocked current): 92.8%
remaining activity at 10 µM (1PBC 10, -120 mV, read-out: fraction of unblocked current): 91.8%
remaining activity at 10 µM (1PBC 10, -140 mV, read-out: fraction of unblocked current): 93.3%
remaining activity at 30 µM (1PBC 30, 0 mV, read-out: fraction of unblocked current): 79.3%
remaining activity at 30 µM (1PBC 30, 20 mV, read-out: fraction of unblocked current): 77.3%
remaining activity at 30 µM (1PBC 30, 40 mV, read-out: fraction of unblocked current): 75.6%
remaining activity at 30 µM (1PBC 30, 60 mV, read-out: fraction of unblocked current): 73.2%
remaining activity at 30 µM (1PBC 30, 80 mV, read-out: fraction of unblocked current): 74.8%
remaining activity at 30 µM (1PBC 30, 100 mV, read-out: fraction of unblocked current): 73.1%
remaining activity at 30 µM (1PBC 30, 120 mV, read-out: fraction of unblocked current): 70.9%
remaining activity at 30 µM (1PBC 30, 140 mV, read-out: fraction of unblocked current): 70%
remaining activity at 30 µM (1PBC 30, -20 mV, read-out: fraction of unblocked current): 81.4%
remaining activity at 30 µM (1PBC 30, -40 mV, read-out: fraction of unblocked current): 84%
remaining activity at 30 µM (1PBC 30, -60 mV, read-out: fraction of unblocked current): 84.5%
remaining activity at 30 µM (1PBC 30, -80 mV, read-out: fraction of unblocked current): 86.5%
remaining activity at 30 µM (1PBC 30, -100 mV, read-out: fraction of unblocked current): 87.5%
remaining activity at 30 µM (1PBC 30, -120 mV, read-out: fraction of unblocked current): 86.9%
remaining activity at 30 µM (1PBC 30, -140 mV, read-out: fraction of unblocked current): 85.6%
remaining activity at 100 µM (1PBC 100, 0 mV, read-out: fraction of unblocked current): 55%
remaining activity at 100 µM (1PBC 100, 20 mV, read-out: fraction of unblocked current): 53.1%
remaining activity at 100 µM (1PBC 100, 40 mV, read-out: fraction of unblocked current): 51%
remaining activity at 100 µM (1PBC 100, 60 mV, read-out: fraction of unblocked current): 49.1%
remaining activity at 100 µM (1PBC 100, 80 mV, read-out: fraction of unblocked current): 47.7%
remaining activity at 100 µM (1PBC 100, 100 mV, read-out: fraction of unblocked current): 46.8%
remaining activity at 100 µM (1PBC 100, 120 mV, read-out: fraction of unblocked current): 47.6%
remaining activity at 100 µM (1PBC 100, 140 mV, read-out: fraction of unblocked current): 48%
remaining activity at 100 µM (1PBC 100, -20 mV, read-out: fraction of unblocked current): 56.9%
remaining activity at 100 µM (1PBC 100, -40 mV, read-out: fraction of unblocked current): 59%
remaining activity at 100 µM (1PBC 100, -60 mV, read-out: fraction of unblocked current): 60.7%
remaining activity at 100 µM (1PBC 100, -80 mV, read-out: fraction of unblocked current): 61.6%
remaining activity at 100 µM (1PBC 100, -100 mV, read-out: fraction of unblocked current): 61.8%
remaining activity at 100 µM (1PBC 100, -120 mV, read-out: fraction of unblocked current): 62.9%
remaining activity at 100 µM (1PBC 100, -140 mV, read-out: fraction of unblocked current): 62.4%
IC50 (20 mV, 4 µM Ca2+): 110 µM
IC50 (40 mV, 4 µM Ca2+): 102 µM
IC50 (60 mV, 4 µM Ca2+): 92.1 µM
log-fold IC50 (change of mutant vs WT) (80 mV): 1.6299
IC50 (80 mV, 4 µM Ca2+): 91.4 µM
IC50 (100 mV, 4 µM Ca2+): 88.7 µM
IC50 (120 mV, 4 µM Ca2+): 84.4 µM
IC50 (140 mV, 4 µM Ca2+): 86.1 µM
IC50 (-20 mV, 4 µM Ca2+): 131 µM
IC50 (-40 mV, 4 µM Ca2+): 145 µM
IC50 (-60 mV, 4 µM Ca2+): 153 µM
IC50 (-80 mV, 4 µM Ca2+): 166 µM
IC50 (-100 mV, 4 µM Ca2+): 169 µM
IC50 (-120 mV, 4 µM Ca2+): 172 µM
IC50 (-140 mV, 4 µM Ca2+): 168 µM
IC50 (R515A, V 0 mV): 120 µM
IC50 (R515A, V 20 mV): 110 µM
IC50 (R515A, V 40 mV): 102 µM
IC50 (R515A, V 60 mV): 92.1 µM
IC50 (R515A, V 80 mV): 91.4 µM
IC50 (R515A, V 100 mV): 88.7 µM
IC50 (R515A, V 120 mV): 84.4 µM
IC50 (R515A, V 140 mV): 86.1 µM
IC50 (R515A, V -20 mV): 131 µM
IC50 (R515A, V -40 mV): 145 µM
IC50 (R515A, V -60 mV): 153 µM
IC50 (R515A, V -80 mV): 166 µM
IC50 (R515A, V -100 mV): 169 µM
IC50 (R515A, V -120 mV): 172 µM
IC50 (R515A, V -140 mV): 168 µM
